Several values for one entry are separate records, joined by “and”; a condition that tells them apart may be missing. Equal values may be shown once. Read-outs that look alike come from different tables or passages of the source.
How the values were obtained:
[1] = tested on: mouse hepatocytes; assay: Hepatocyte Cl mouse; type: in vitro ADME
Protocol: Hep Cl mouse: in vitro hepatocyte clearance in mouse cells.
Clu: in vitro clearance. Clu as defined here is the scaled clearance, in turn calculated from the intrinsic clearance. The intrinsic clearance is the predicted clearance due to hepatic metabolic reactions, determined from incubation of a compound in a hepatocyte preparation.

[2] = FaSSIF solubility; type: physicochemical; settings: pH 6.5, simulated intestinal fluid fasted state
Text: FaSSIF: simulated intestinal fluid in fasted state measured at pH 6.5.

[3] = target: T1, USP30 (Homo sapiens, UniProt Q70CQ3); assay: USP30 biochemical IC50 assay (fluorescence polarisation)
T1 construct: purchased Boston Biochem E582
T1 sequence (Q70CQ3 57-517 limits assumed): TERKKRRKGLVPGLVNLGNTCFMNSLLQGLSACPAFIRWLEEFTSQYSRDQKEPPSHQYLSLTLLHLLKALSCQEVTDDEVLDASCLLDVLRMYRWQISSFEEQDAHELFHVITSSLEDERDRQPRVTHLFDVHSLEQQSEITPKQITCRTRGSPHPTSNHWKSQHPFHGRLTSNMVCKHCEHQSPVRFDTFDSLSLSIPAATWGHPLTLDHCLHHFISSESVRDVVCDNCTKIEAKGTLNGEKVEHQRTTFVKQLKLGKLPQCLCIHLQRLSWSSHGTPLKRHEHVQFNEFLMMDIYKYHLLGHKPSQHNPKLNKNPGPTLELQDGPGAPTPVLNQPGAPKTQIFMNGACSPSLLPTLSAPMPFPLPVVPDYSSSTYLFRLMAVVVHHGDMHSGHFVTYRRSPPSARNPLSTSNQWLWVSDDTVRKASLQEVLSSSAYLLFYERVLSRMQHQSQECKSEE
Protocol: Dilution plates were prepared at 21 times the final concentration (2100 μM for a final concentration of 100 μM) in 50% DMSO in a 96-well polypropylene V-bottom plate (Greiner #651201). A typical 8-point dilution series would be 100, 30, 10, 3, 1, 0.3, 0.1, 0.03 μM final. Reactions were performed in duplicate in black 384 well plates (small volume, Greiner 784076) in a final reaction volume of 21 μl. Either 1 μl of 50% DMSO or diluted compound was added to the plate. USP30 (Boston Biochem #E582) was diluted in reaction buffer (40 mM Tris, pH 7.5, 0.005% Tween 20, 0.5 mg/ml BSA, 5 mM beta-mercaptoethanol) to achieve a final assay concentration of 4 nM, and 10 μl of diluted USP30 was added to the compound. Enzyme and compound were incubated for 30 min at room temp. Reactions were initiated by the addition of 50 nM of TAMRA labelled peptide linked to ubiquitin via an iso-peptide bond as fluorescence polarisation substrate. Reactions were read immediately after addition of substrate and following a 2-hour incubation at room temperature. Readings were performed on a Pherastar Plus (BMG Labtech). λ Excitation 540 nm; λ Emission 590 nm.

[4] = PK mouse 10 mg/kg PO; type: in vivo
Text: Oral F: Oral bioavailability.

[5] = target: Cathepsin B (Homo sapiens, UniProt P07858); assay: Cathepsin B IC50; type: biochemical
[6] = target: Cathepsin V (Homo sapiens, UniProt O60911); assay: Cathepsin V IC50; type: biochemical
Cathepsin V, sequence (O60911 114-334, species assumed): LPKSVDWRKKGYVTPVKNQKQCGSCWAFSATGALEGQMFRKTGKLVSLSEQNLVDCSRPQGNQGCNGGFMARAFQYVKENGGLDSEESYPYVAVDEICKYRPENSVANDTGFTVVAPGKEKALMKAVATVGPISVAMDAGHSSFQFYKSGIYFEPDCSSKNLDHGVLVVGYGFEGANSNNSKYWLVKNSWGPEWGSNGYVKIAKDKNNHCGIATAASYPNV

[7] = tested on: Cathepsins B, K, L, S, V; assay: Cathepsin panel IC50 (summary over B, K, L, S, V); type: biochemical
[8] = Log D; type: physicochemical; settings: pH 7.4; read-out: Log D measured at pH 7.4
Text: log D: distribution co-efficient; lipophilicity measurement.

[9] = tested on: TOM20 ubiquitylation; assay: TOM20-ubiquitylation assay; type: cell-based, human; settings: Antimycin A/oligomycin mitophagy trigger
Text: Human cell lines can be challenged with mitochondrial depolarizing agents (ionophores (eg. CCCP, valinomycin), mitochondrial complex inhibitors (oligomycin, antimycin A)) to induce ubiquitylation of TOM20, which is then further promoted in the presence of USP30 inhibitors. TOM20 ubiquitylation is subsequently assessed through western blotting of the cell lysates, with TOM20 ubiquitylation adduct detection possible due to an 8 kDa molecule weight increase for each molecule of ubiquitin added, resulting in laddering of a TOM20 immunoreactive band. TOM20-ubiquitylation levels can be quantified using chemiluminescence densitometry of laddered immunoreactive bands.

[10] = Turbidimetric solubility; type: physicochemical; settings: aqueous buffer, kinetic from dmso stock
Text: Turbidimetric solubility: Test compound solution prepared in DMSO diluted into aqueous buffer.
Turbidimetry is used as the end-point by measuring absorbance at 620 nm.

[11] = tested on: USP2, USP6, USP10, USP16, USP21, USP22, USP25, USP28; assay: DUB selectivity panel IC50; type: biochemical
[12] = target: T2, UCHL1 (Homo sapiens, UniProt P09936); assay: UCHL1 DUB IC50; type: biochemical
T2 sequence (P09936 1-223): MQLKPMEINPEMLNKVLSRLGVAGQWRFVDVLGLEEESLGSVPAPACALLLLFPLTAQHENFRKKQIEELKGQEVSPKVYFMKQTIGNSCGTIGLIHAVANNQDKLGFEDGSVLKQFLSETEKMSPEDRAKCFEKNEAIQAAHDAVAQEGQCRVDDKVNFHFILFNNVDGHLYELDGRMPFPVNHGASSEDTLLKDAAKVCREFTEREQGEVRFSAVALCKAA

[13] = Brain homogenate binding, equilibrium dialysis; type: in vitro ADME; settings: mouse, read-out: Binding Mouse Brain fu, br
Text: Brain fu,br: The free fraction of a compound in brain homogenate preparation determined by in vitro equilibrium dialysis. It is understood that only unbound (free) compound is capable of engaging with the target.

[14] = tested on: HCT116 human colorectal carcinoma cells; assay: In vitro cytotoxicity (Cell Tox), alamarBlue; type: cell-based; settings: HCT-116, 96-hour continual compound exposure
Text: There is also a need for compounds that have a favourable safety profile, which may be measured by a variety of standard in vitro and in vivo methods. A cell toxicity counter-screen may be used to assay the anti-proliferative/cytotoxic effect in a particular cell line (e.g. HCT116) by fluorometric detection of rezasurin (alamarBlue™) to resofurin in response to mitochondrial activity.
Measured in HCT116 human colorectal carcinoma cells using alamarBlue™ as the assay endpoint. Compound cytotoxicity was measured over a period of 96-hour continual compound exposure.

COC[C@@H]1C[C@@H](NC(=O)c2ncc(-c3cccc(C(F)(F)F)c3)o2)CN1C#N [Example 1, N-((3R,5S)-1-Cyano-5-(methoxymethyl)-pyrrolidin-3-yl)-5-(3-(trifluoromethyl)phenyl)oxazole-2-carboxamide]
Hepatocyte Cl mouse Scaled Clu [1]: 81 mL/min/kg
hepatocyte metabolic stability compared to Reference Examples A and B (in words) [1]: significantly improved hepatocyte metabolic stability
FaSSIF (μM) measured at pH 6.5 [2]: 200 μM
IC50 ([3]; USP30 biochemical IC50 assay, read-out: USP30 IC50): 0.009 µM
IC50 ([3]; read-out: DUB IC50 (μM) USP30): 0.009 µM and 0.004 to 0.033 µM
Unbound plasma Cmax/TOM20-Ub cell potency ([4]; 10 mg/kg PO dose - mouse): 41-fold
bioavailability ([4]; plasma, po, mouse 10 mg/kg, read-out: Oral F (%)): 82%
IC50 [5]: 122 µM
IC50 [6]: 105 µM
Selectivity preference for USP30 v cathepsins [7]: >1133
IC50 ([7]; range over the five cathepsins, read-out: Cathepsin IC50 (μM) B, K, L, S, V): 10.2 to 138 µM
logD [8]: 2.6
TOM20-Ub 1.5-fold gain EC1.5x [9]: 0.020 µM
solubility [10]: > 100 µM
DUB selectivity preference for USP30 v 8 DUBs [11]: >1777
IC50 ([11]; range over the eight DUBs, read-out: DUB IC50 (μM) USP2, USP6, USP10, USP16, USP21, USP22, USP25, USP28): 16 to 97.9 µM
IC50 [12]: > 300 µM
fraction unbound [13]: 0.05
EC50 [14]: > 30 µM
